Measurements: PubChem BioAssay AID248 (DTP/NCI, 2004)
Inconclusive results and toxic doses are left out.

System: L1210 leukemia ip in BDF1 mice, survival T/C
Assay: NCI In Vivo Anticancer Drug Screen. Data for tumor model L1210 Leukemia (intraperitoneal) in B6D2F1 (BDF1) mice
Details: endpoint: mean survival time, higher = longer survival
Procedure, shortened: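 Tumor cells were implanted, animals were treated, and survival was followed. The result divides the treated measurement by the vehicle-control measurement.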

[1] = dose: 100.0 mg/kg/injection, schedule: Q04DX002 (ip), vehicle: saline
[2] = dose: 200.0 mg/kg/injection, schedule: Q04DX002 (ip), vehicle: saline
[3] = dose: 400.0 mg/kg/injection, schedule: Q04DX002 (ip), vehicle: saline
[4] = dose: 100.0 mg/kg/injection, schedule: Q01DX001 (ip), vehicle: Klucel (hydroxypropylcellulose) (HPC)
[5] = dose: 100.0 mg/kg/injection, schedule: Q04DX003 (ip), vehicle: Klucel (hydroxypropylcellulose) (HPC)
[6] = dose: 200.0 mg/kg/injection, schedule: Q01DX001 (ip), vehicle: Klucel (hydroxypropylcellulose) (HPC)
[7] = dose: 200.0 mg/kg/injection, schedule: Q04DX003 (ip), vehicle: Klucel (hydroxypropylcellulose) (HPC)
[8] = dose: 400.0 mg/kg/injection, schedule: Q01DX001 (ip), vehicle: Klucel (hydroxypropylcellulose) (HPC)
[9] = dose: 400.0 mg/kg/injection, schedule: Q04DX003 (ip), vehicle: Klucel (hydroxypropylcellulose) (HPC)
[10] = dose: 100.0 mg/kg/injection, schedule: Q04DX003 (ip), vehicle: saline

Q: Which results are given for `O=C(NCCO)Nc1cccc(Cl)c1`?
A: T/C [1]: 100 % of control; T/C [2]: 100 % of control; T/C [3]: 111 % of control

Q: For `COc1ccc(C(O)C(C)C(O)(C(F)(F)F)C(F)(F)F)cc1` (stereo not given), which T/C [4] is on record?
A: Its T/C is 98 % of control.

Q: And the T/C [5]?
A: The T/C was 96 % of control.

Q: And the T/C [6]?
A: Its T/C is 101 % of control.

Q: And the T/C [7]?
A: The T/C was 98 % of control.

Q: What about the T/C [8] of the same compound?
A: Its T/C is 111 % of control.

Q: And the T/C [9]?
A: The T/C was 93 % of control.

Q: With `CCSC(=N)N` as the compound, how does the T/C [1] read?
A: The T/C was 118 % of control.

Q: What about the T/C [2] of the same compound?
A: The T/C was 104 % of control.

Q: And the T/C [3]?
A: The T/C was 91 % of control.

Q: `Cc1cc(NC(=O)SCCOC(=O)COc2ccc(Cl)cc2)ccc1Cl` was tested. Which T/C (dose: 100.0 mg/kg/injection, schedule: Q01DX009 (ip), vehicle: saline with Tween-80) did it give?
A: The T/C was 94 % of control.

Q: What about the T/C (dose: 200.0 mg/kg/injection, schedule: Q01DX009 (ip), vehicle: saline with Tween-80) of the same compound?
A: The T/C was 88 % of control.

Q: And the T/C (dose: 400.0 mg/kg/injection, schedule: Q01DX009 (ip), vehicle: saline with Tween-80)?
A: Its T/C is 90 % of control.

Q: Which results are given for `COC(=O)C1=CC(C(=O)OC)C(C(=O)OC)N2C=CSC2=C1` (stereo not given)?
A: T/C (dose: 25.0 mg/kg/injection, schedule: Q04DX003 (ip), vehicle: saline): 93 % of control; T/C (dose: 50.0 mg/kg/injection, schedule: Q04DX003 (ip), vehicle: saline): 100 % of control; T/C [10]: 96 % of control

Q: For `CC(=O)NOCc1ccc([N+](=O)[O-])cc1`, which T/C [5] is on record?
A: Its T/C is 95 % of control.

Q: What about the T/C [7] of the same compound?
A: Its T/C is 100 % of control.

Q: And the T/C [9]?
A: Its T/C is 97 % of control.

Q: How did the T/C (dose: 50.0 mg/kg/injection, schedule: Q01DX001 (ip), vehicle: other) turn out when `Cn1c(=O)c2c(nc(Cc3ccc(NC(=O)c4ccc(C(=O)Nc5ccc(Cc6nc7c(c(=O)n(C)c(=O)n7C)n6C)cc5)cc4)cc3)n2C)n(C)c1=O` was run?
A: The T/C was 97 % of control.

Q: What about the T/C (dose: 100.0 mg/kg/injection, schedule: Q01DX001 (ip), vehicle: other) of the same compound?
A: Its T/C is 94 % of control.

Q: What about the T/C (dose: 200.0 mg/kg/injection, schedule: Q01DX001 (ip), vehicle: other) of the same compound?
A: The T/C was 94 % of control.

Q: And the T/C (dose: 400.0 mg/kg/injection, schedule: Q01DX001 (ip), vehicle: other)?
A: Its T/C is 92 % of control.

Q: Which results are given for `O=C(O)C1C(C2c3ccc(O)cc3Oc3cc(O)ccc32)C2(Cl)C(Cl)=C(Cl)C1(Cl)C2(Cl)Cl` (stereo not given)?
A: T/C [10]: 100 % of control; T/C (dose: 200.0 mg/kg/injection, schedule: Q04DX003 (ip), vehicle: saline): 93 % of control; T/C (dose: 400.0 mg/kg/injection, schedule: Q04DX003 (ip), vehicle: saline): 94 % of control

Q: Which results are given for `O=C(O)CCC(Nc1sc([N+](=O)[O-])cc1[N+](=O)[O-])C(=O)O` (stereo not given)?
A: T/C (dose: 100.0 mg/kg/injection, schedule: Q04DX002 (ip), vehicle: saline with Tween-80): 95 % of control; T/C (dose: 200.0 mg/kg/injection, schedule: Q04DX002 (ip), vehicle: saline with Tween-80): 106 % of control; T/C (dose: 400.0 mg/kg/injection, schedule: Q04DX002 (ip), vehicle: saline with Tween-80): 92 % of control

Q: `Cc1ccc(S(=O)(=O)OCCC2=CCC3CC2C3(C)C)cc1` (stereo not given) was tested. Which T/C [1] did it give?
A: Its T/C is 103 % of control.

Q: And the T/C [2]?
A: The T/C was 95 % of control.

Q: What about the T/C [3] of the same compound?
A: Its T/C is 95 % of control.

Q: How did the T/C (dose: 50.0 mg/kg/injection, schedule: Q01DX Z (ip), vehicle: carboxymethylcellulose (CMC)) turn out when `CC(CNC(=O)CCBr)NC(=O)CCBr` (stereo not given) was run?
A: The T/C was 103 % of control.

Q: What about the T/C (dose: 170.0 mg/kg/injection, schedule: Q01DX Z (ip), vehicle: carboxymethylcellulose (CMC)) of the same compound?
A: Its T/C is 100 % of control.

Q: What about the T/C (dose: 200.0 mg/kg/injection, schedule: Q01DX009 (ip), vehicle: saline) of the same compound?
A: The T/C was 153 % of control.

Q: And the T/C (dose: 400.0 mg/kg/injection, schedule: Q01DX009 (ip), vehicle: saline)?
A: Its T/C is 178 % of control.

Q: With `COC(=O)C(CCl)NC(=O)NCCCl` (stereo not given) as the compound, how does the T/C [4] read?
A: The T/C was 96 % of control.

Q: And the T/C [6]?
A: The T/C was 96 % of control.

Q: What about the T/C [8] of the same compound?
A: The T/C was 96 % of control.

Q: Which T/C (dose: 25.0 mg/kg/injection, schedule: Q04DX003 (ip), vehicle: saline with Tween-80) does the source give for `CCCCCCCc1nc(N)c(C(N)=O)[nH]1` here?
A: The T/C was 96 % of control.

Q: And the T/C (dose: 50.0 mg/kg/injection, schedule: Q04DX003 (ip), vehicle: saline with Tween-80)?
A: Its T/C is 102 % of control.

Q: What about the T/C (dose: 100.0 mg/kg/injection, schedule: Q01DX001 (ip), vehicle: saline with Tween-80) of the same compound?
A: Its T/C is 98 % of control.

Q: And the T/C (dose: 100.0 mg/kg/injection, schedule: Q04DX003 (ip), vehicle: saline with Tween-80)?
A: The T/C was 101 % of control.
